The results in this text go back to ChEMBL document CHEMBL1201862, “PubChem BioAssay data set” (2004).

Experiment [1] can be described thus: Jurkat T cell cytotoxicity, dose response, cytotoxicity control for P. falciparum gametocyte viability project, luminescence (AID 1117277).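 Further: potency reflects loss of cellular ATP meaning fewer viable cells.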 Format: functional, cell-based.
A short description of experiment [2]: P. falciparum late gametocyte killing, dose response, luminescence (AID 1117278).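 Further: gametocytes exposed to compound for 24 hours.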 The class given is functional, cell-based.
In another experiment the test system is H9c2. The experiment can be described thus: cells. Particulars: Rattus norvegicus, H9c2, Myocardium. Format: functional, cell-based.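 Further: confirmatory concentration-response retest of ultra-high-throughput screening hits for modulation of myocardial damage; cell death induced by hydrogen peroxide oxidative stress; compound pretreatment for 60 min then peroxide exposure for 2 h; potency is for protecting the cells against peroxide damage rather than for killing them.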
For experiment [3], the target named is Mitogen-activated protein kinase 10 (Homo sapiens, UniProt P53779). The experiment can be described thus: Dose response biochemical screening assay for inhibitors of c-Jun N-Terminal Kinase 3 (JNK3). [Related pubchem assays: 746 ].
Mitogen-activated protein kinase 10, sequence (P53779 whole entry): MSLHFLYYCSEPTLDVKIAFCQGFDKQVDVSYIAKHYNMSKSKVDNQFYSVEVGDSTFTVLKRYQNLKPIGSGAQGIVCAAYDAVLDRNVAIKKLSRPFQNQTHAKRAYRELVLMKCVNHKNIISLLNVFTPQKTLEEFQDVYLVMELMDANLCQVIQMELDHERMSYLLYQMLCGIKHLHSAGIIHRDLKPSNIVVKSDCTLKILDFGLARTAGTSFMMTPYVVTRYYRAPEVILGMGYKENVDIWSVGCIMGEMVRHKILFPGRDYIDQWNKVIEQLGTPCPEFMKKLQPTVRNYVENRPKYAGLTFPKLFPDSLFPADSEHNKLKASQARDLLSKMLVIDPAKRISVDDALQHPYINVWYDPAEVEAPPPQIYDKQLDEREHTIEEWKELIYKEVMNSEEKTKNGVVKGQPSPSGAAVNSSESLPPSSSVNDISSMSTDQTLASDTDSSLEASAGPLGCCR
Experiment [4] can be described thus: cytotoxicity in HPDE-C7 cells, cell-based, fluorescence, HTS (AID 430). The class given is functional. Particulars: Homo sapiens.
Experiment [5] is described as follows: microbe, parasite or virus in culture. The class given is functional. Particulars: Mycobacterium tuberculosis.
Experiment [6] can be described thus: cytotoxicity in KRAS-transformed pancreatic duct cells, primary screen, cell-based, fluorescence, HTS (AID 431).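 Further: cell line used: HPDE-C7K.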 Format: functional. Particulars: Homo sapiens.
Experiment [7] is described as follows: inhibitors of intracellular T. cruzi replication, confirmation, NIH3T3 host cells, beta-gal luminescence (AID 2044).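 Further: intracellular parasites grown in NIH/3T3 mouse fibroblasts as host cells; luminescent beta-galactosidase reporter signal from transgenic T. cruzi replicating inside host cells; inhibitors lower the luminescence signal.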 The class given is functional, cell-based.
For a further experiment, the target named is T1, Protein skinhead-1 (Caenorhabditis elegans, UniProt P34707).
T1 sequence (P34707 whole entry): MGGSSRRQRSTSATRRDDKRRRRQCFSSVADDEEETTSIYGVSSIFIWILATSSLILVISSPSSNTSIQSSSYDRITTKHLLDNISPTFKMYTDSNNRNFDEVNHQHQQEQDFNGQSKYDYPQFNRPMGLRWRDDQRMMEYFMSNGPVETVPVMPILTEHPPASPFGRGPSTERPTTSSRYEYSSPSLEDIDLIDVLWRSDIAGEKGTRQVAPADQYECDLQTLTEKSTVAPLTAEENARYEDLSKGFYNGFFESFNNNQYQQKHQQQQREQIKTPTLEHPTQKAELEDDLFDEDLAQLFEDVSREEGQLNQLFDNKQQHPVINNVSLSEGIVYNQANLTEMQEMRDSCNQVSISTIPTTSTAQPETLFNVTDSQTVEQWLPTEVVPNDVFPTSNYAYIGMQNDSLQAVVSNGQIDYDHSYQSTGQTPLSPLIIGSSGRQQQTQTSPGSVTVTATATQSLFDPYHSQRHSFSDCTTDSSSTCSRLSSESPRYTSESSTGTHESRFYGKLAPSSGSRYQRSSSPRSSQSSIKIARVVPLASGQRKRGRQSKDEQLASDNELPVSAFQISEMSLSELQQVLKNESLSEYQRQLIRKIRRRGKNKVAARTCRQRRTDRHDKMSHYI
The class given is functional.

Experiment [8] can be described thus: cytotoxicity toward NIH3T3 fibroblasts, dose response, counter-screen, cell-based, ATP luminescence, mouse fibroblasts (AID 2010).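 Further: cells exposed to compound for about 90 hours before reading.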 The class given is functional. On the technique in general: Counterscreens check selectivity or assay interference.
The nature of experiment [9]: HEK293T cytotoxicity, dose response, cytotoxicity control for miR-122 modulator project, cell-based, inhibitor set, cherry-pick, set 2 (AID 720697). Format: functional.
Experiment [10] is described as follows: Luminescence Cell-Based Dose Retest to Confirm Inhibitors of Cancer Stem Cells. [Related pubchem assays (depositor defined):AID2717, AID2721]. Particulars: Homo sapiens. The class given is functional.
In experiment [11] the target is T2, Histone-lysine N-methyltransferase NSD2 (Homo sapiens, UniProt O96028).
T2 sequence (O96028 whole entry): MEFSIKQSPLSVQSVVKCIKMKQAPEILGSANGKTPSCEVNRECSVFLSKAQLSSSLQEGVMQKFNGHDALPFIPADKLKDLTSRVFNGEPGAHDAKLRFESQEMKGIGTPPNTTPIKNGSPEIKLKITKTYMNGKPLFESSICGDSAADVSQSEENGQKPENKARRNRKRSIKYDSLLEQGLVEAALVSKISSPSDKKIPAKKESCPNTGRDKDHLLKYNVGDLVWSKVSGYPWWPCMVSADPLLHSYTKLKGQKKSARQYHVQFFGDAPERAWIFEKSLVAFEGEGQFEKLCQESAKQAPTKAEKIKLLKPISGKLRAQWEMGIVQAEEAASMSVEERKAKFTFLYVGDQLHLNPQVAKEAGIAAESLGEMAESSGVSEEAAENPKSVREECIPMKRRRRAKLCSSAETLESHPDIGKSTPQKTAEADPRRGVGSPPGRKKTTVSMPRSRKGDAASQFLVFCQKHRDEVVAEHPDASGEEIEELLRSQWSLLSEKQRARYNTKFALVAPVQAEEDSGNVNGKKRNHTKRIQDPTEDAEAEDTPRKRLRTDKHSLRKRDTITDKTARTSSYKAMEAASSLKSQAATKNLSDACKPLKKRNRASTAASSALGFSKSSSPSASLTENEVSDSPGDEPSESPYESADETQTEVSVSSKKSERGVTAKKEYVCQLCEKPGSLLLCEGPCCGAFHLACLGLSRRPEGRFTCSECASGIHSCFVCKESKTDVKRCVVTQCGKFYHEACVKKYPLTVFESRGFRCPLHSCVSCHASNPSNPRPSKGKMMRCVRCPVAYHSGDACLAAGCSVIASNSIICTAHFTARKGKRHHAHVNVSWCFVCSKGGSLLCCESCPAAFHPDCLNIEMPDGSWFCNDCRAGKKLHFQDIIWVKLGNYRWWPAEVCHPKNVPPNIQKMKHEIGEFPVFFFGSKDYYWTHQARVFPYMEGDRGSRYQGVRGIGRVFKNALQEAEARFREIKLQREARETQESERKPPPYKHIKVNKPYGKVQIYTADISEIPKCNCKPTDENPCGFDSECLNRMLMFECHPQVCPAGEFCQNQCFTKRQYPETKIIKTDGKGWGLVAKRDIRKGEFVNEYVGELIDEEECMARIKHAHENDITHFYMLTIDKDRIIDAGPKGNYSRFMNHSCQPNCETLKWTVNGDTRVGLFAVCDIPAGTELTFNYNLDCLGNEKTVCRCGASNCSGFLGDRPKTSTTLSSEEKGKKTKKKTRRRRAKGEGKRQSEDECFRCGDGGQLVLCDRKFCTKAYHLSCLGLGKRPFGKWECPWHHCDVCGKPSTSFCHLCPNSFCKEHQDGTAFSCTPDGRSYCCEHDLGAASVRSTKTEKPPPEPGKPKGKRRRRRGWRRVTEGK
The class given is biochemical.

For experiment [12], the target named is Peroxisome proliferator-activated receptor gamma/Nuclear receptor coactivator 1 (Homo sapiens, UniProt P37231). The class given is functional.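 Further: agonist potency as compounds enhance coactivator SRC-1 recruitment to PPARgamma.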
Peroxisome proliferator-activated receptor gamma/Nuclear receptor coactivator 1, sequence (P37231 whole entry): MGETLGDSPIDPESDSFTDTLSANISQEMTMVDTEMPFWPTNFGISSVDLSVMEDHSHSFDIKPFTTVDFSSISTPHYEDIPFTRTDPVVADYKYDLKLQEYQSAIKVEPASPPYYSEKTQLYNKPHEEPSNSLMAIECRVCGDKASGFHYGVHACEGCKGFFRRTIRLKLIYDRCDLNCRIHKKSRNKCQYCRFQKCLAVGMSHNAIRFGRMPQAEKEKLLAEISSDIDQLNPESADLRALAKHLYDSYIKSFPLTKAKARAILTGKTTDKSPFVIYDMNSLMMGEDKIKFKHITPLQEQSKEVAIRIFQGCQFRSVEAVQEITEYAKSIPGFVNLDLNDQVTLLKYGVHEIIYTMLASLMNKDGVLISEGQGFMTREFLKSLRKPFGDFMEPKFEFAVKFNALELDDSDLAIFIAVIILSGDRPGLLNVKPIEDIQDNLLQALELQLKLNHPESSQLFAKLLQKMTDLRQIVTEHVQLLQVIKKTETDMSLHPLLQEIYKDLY
Peroxisome proliferator-activated receptor gamma/Nuclear receptor coactivator 1, sequence (Q15788 whole entry, further chain): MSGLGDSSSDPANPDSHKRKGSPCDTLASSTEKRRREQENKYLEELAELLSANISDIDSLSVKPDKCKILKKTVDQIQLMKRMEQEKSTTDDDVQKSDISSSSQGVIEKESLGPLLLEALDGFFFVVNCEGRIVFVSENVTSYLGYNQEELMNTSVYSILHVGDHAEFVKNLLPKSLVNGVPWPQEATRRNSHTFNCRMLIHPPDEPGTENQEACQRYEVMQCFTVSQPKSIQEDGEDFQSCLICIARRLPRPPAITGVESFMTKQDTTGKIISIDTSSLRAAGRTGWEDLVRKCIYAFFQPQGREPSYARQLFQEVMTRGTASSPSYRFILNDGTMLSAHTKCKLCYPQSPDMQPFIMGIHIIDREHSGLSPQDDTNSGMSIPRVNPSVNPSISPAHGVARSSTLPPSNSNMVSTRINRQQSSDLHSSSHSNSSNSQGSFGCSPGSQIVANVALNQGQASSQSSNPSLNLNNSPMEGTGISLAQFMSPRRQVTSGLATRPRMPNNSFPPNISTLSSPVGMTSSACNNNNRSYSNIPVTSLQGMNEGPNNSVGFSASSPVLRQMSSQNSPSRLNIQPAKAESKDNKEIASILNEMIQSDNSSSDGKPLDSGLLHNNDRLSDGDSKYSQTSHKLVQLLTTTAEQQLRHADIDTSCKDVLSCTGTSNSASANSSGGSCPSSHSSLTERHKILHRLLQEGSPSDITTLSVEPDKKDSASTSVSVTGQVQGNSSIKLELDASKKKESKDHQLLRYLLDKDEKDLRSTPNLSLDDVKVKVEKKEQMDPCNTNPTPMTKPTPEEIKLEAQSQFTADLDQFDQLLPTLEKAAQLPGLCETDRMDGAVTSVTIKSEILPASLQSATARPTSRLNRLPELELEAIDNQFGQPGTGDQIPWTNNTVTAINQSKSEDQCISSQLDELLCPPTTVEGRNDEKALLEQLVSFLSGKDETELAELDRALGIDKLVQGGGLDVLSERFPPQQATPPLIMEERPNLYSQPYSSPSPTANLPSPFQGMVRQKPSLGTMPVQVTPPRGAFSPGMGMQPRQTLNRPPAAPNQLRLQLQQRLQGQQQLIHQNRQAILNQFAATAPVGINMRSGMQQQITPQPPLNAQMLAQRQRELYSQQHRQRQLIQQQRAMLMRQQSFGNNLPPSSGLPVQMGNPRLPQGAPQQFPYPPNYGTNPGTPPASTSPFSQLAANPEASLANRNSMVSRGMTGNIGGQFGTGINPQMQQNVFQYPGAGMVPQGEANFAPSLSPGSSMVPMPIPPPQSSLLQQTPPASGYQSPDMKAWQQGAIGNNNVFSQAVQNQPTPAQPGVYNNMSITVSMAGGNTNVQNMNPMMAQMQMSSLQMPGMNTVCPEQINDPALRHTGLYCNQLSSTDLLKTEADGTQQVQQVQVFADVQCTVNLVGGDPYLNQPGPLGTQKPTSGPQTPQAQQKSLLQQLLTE
The target of experiment [13] is Peroxisome proliferator-activated receptor gamma/Nuclear receptor coactivator 3 (Homo sapiens, UniProt P37231). The class given is functional.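 Further: agonist potency for raising coactivator recruitment to the receptor.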
Experiment [14] addresses Peroxisome proliferator-activated receptor gamma/Nuclear receptor coactivator 2 (Homo sapiens, UniProt P37231). Format: functional.
Experiment [15] is described as follows: P. falciparum ATP4 D1247Y mutant growth inhibitors, dose response, NITD609-resistant line, SYBR Green, dry powder (AID 1159571).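 Further: parasites synchronized at ring stage by sorbitol before testing.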 The class given is functional, cell-based.
Experiment [16] is described as follows: P. falciparum Dd2 growth inhibitors, dose response, SYBR Green, cherry-picked samples (AID 1159567). The class given is functional, cell-based.
Experiment [17] is described as follows: P. falciparum 3D7-ScDHODH growth inhibitors, dose response, SYBR Green, dry powder samples (AID 1159570).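 Further: parasite growth measured after 72 hours of compound exposure.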 The class given is functional, cell-based.
Experiment [18] can be described thus: P. falciparum Dd2 growth inhibitors, dose response, SYBR Green, dry powder samples (AID 1159566).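 Further: potency for growth inhibition with lower SYBR green DNA signal.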 The class given is functional, cell-based.
In experiment [19] the target is Luciferin 4-monooxygenase (Photinus pyralis, UniProt P08659). The experiment can be described thus: Counter Screen for Luciferase-based Assay Positives. [Related pubchem assays: 620, 618, 411 ].
The test system of a further experiment is HT-1080. The experiment can be described thus: cytotoxicity in HT1080 fibrosarcoma cells, cell-based, fluorescence readout (AID 620). Format: functional. The note with it: Homo sapiens.
Experiment [20] deals with Glyceraldehyde-3-phosphate dehydrogenase (Homo sapiens, UniProt P04406).
Glyceraldehyde-3-phosphate dehydrogenase, sequence (P04406 whole entry): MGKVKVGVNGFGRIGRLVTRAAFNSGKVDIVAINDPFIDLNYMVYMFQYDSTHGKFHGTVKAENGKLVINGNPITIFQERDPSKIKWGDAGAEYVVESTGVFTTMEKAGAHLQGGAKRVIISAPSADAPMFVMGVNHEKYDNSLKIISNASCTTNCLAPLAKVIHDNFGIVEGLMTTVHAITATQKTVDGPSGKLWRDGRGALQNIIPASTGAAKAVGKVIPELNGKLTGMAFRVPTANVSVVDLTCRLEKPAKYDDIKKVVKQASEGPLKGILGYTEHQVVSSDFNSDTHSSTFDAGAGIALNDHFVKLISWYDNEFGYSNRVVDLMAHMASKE

The source made the active and inactive calls.

Peroxisome proliferator-activated receptor gamma/Nuclear receptor coactivator 2, sequence (P37231 whole entry): as the sequence (P37231 whole entry) above
Peroxisome proliferator-activated receptor gamma/Nuclear receptor coactivator 2, sequence (Q15596 whole entry, further chain): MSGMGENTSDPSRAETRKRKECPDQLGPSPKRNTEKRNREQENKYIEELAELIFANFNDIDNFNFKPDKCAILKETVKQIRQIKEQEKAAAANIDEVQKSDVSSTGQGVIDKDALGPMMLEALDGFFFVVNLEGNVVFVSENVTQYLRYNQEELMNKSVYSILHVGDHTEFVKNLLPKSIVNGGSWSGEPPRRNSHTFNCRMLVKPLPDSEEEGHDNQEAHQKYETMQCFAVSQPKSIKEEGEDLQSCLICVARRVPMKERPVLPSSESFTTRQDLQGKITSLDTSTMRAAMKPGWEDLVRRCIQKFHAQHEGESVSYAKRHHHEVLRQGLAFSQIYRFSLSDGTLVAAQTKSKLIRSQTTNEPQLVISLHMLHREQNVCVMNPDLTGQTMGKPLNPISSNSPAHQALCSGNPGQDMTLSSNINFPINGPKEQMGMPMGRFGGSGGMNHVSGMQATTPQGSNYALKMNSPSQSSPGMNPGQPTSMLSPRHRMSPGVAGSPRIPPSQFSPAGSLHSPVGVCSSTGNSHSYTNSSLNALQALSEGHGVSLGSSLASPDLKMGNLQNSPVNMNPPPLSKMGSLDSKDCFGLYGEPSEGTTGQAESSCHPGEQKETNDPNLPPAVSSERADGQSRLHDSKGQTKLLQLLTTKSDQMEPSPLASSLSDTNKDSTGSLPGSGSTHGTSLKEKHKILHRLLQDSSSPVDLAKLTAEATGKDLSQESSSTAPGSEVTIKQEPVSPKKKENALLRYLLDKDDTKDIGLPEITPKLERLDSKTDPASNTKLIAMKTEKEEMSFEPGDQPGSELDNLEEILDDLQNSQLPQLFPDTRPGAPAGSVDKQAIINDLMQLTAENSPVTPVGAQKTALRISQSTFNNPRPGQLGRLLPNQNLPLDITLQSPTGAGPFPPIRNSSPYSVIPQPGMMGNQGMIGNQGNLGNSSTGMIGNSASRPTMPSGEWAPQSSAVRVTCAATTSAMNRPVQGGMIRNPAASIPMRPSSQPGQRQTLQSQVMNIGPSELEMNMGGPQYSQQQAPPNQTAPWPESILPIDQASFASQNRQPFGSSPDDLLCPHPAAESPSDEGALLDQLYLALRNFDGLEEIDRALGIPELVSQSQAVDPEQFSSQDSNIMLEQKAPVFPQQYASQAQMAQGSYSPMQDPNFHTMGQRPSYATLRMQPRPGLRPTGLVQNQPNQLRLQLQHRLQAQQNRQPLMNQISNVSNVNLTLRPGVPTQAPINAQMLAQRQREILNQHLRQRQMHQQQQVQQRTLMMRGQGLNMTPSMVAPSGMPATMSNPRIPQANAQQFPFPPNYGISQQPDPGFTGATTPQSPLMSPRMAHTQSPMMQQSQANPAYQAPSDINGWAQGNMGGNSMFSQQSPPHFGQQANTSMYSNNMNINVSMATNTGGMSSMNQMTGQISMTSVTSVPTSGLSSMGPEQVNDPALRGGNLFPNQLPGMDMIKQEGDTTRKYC

Take `Cc1ccc(NC(=O)C2CCN(c3nc(C)cc(C)n3)CC2)cc1`: the IC50 (commonly the concentration at which inhibition is half-maximal) in experiment [1] was > 83.3 µM (inactive); in [2], > 109 µM (inactive).
For `COc1ccc(OC)c(Nc2nc(N)nc(-c3cc4ccccc4o3)n2)c1`, the IC50 is > 79 µM (inactive) with H9c2 and 47.8 µM (not active) in experiment [3].
In the case of `CCn1c(C(C)NC(C)=O)nc2ccccc21` (configuration not stated), the IC50 in experiment [3] is on record as > 93.1 µM (not active).
Turning to `O=C(Cc1c[nH]c2ccccc12)Nc1nccs1`, the IC50 in experiment [1] is > 83.3 µM (inactive); in [2], > 109 µM (inactive).
With `COc1cccc(N2CCN(c3[nH]cnc4c5ccccc5nc3-4)CC2C)c1` (configuration not stated), the EC50 (as a rule, the concentration giving half of the maximal effect) in experiment [4] was 3.33 µM (active); in experiment [6], 3.01 µM (active). Moreover, in experiment [5], the CC50 was 7.28 µM (active).
Consider `N=c1c2c(-c3ccccc3)c(-c3ccccc3)n(Cc3ccccc3)c2ncn1CCCO`, for which the EC50 was 1.26 µM (active) in experiment [7] and > 60 µM (inconclusive) in experiment [8]. Besides, the IC50 at Protein skinhead-1 is > 100 µM (inactive). The AC50 (as a rule, the midpoint of the concentration-response curve, whichever way the signal moves) in experiment [9] was 7.08 µM (active).
Regarding `CCCn1c(=S)[nH]c2cc(C(=O)N3CCc4ccccc4C3)ccc2c1=O`, the IC50 in [1] was > 83.3 µM (inactive); in [2] it was > 109 µM (inactive).
For `O=C(CCCn1c(=O)[nH]c2cc(Cl)ccc2c1=O)NCCCN1CCCC1`, the IC50 in experiment [1] was > 83.3 µM (inactive); in experiment [2], > 109 µM (inactive).
With `CC(C)(C)c1nc(N2CCN(C(=O)c3ccco3)CC2)c2nnn(Cc3ccccc3Cl)c2n1`, the half-maximal effective concentration (EC50) in [4] was 4.47 µM (active); in experiment [6], 5.38 µM (active). Besides, in experiment [10], the AC50 is 3.44 µM (active).
Consider `CNCCCOc1cccc(OC(C)C)c1`, for which, in experiment [11], the AC50 was 17.3 µM (active).
As for `CCN(CC)CCCNC(=O)c1ccc2c(SCC(=O)O)c3c(nc2c1)CCC3`, the EC50 in experiment [12], in experiment [13] and in experiment [14] was > 79.4 µM (not active) in each case.
Turning to `COc1ccc(-c2c3c([nH]c(=S)c2C#N)CCC3)cc1`, in [3], the IC50 is reported as 17.6 µM (not active).
Take `Cc1ccccc1-n1c(S)nnc1-c1ccco1`: the EC50 in experiment [12], in experiment [13] and in experiment [14] was > 79.4 µM (not active) each time.
Turning to `C/C=C/c1ccc([C@H]2[C@@H](CO)N[C@@H]2CN(CC)C(=O)CN2CCOCC2)cc1`, the AC50 in [9] is 47.6 µM (active).
Take `CN(C)/C=N/C(=O)/C(C#N)=C1\CCc2ccccc2N1`: the half-inhibitory concentration (IC50) in experiment [3] was > 93.1 µM (not active).
Turning to `COCCCNC(=O)c1c(N)n(/N=C/c2cccs2)c2nc3ccccc3nc12`, the EC50 in [4] was 9.78 µM (active); in [6], > 20 µM (not active).
`COc1ccc(C#Cc2ccc3c(c2)O[C@@H](CN(C)C(=O)Nc2cccc(OC)c2)[C@H](C)CN([C@H](C)CO)S3(=O)=O)cc1`: the AC50 in experiment [15] was 0.986 µM (active); in [16], 1.5 µM (active); in [17], 0.799 µM (active); in [18], 0.662 µM (active).
In the same order, the values of `C[C@H](CO)N1C[C@H](C)[C@H](CN(C)S(=O)(=O)c2ccc(C#N)cc2)OCc2ccccc2-c2c(n(C)c3ccccc23)C1=O` are 0.41 µM (active), 1.25 µM (active), 0.563 µM (active) and 0.314 µM (active).
In the case of `COc1ccc(-c2cc3nnc(-c4ccccc4)nc3s2)cc1`, the EC50 in [19] is 0.27 µM (active); with HT-1080, > 50 µM (not active). Moreover, in [20], the 50% inhibitory concentration (IC50) is listed as > 100 µM (not active).
As to `NC(N)=Nc1nc(CSCCC(N)=NS(N)(=O)=O)cs1` [FAMOTIDINE], the EC50 in [12], in experiment [13] and in experiment [14] was > 79.4 µM (not active) in each case.
